Laboratory results from ChEMBL document CHEMBL1201862, “PubChem BioAssay data set” (2004).
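All cell lines were grown in 96-well plates and treated with compound for 48 hours. GI50 marks 50% less growth.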 The source made the active and inactive calls. Cut-off read from the data, not from the text of the source: active = GI50 up to about 1.1 µM and inactive = higher.

Key:
Assay in all cases: growth of human tumour cells (NCI), 48 h
[1] = tested on: NCI-H522
[2] = tested on: HCT-15
[3] = tested on: K562
[4] = tested on: 786-0
[5] = tested on: A549
[6] = tested on: OVCAR-8
[7] = tested on: KM12
[8] = tested on: RXF 393
[9] = tested on: NCI-H23
[10] = tested on: MDA-MB-435
[11] = tested on: EKVX
[12] = tested on: COLO 205
[13] = tested on: UO-31
[14] = tested on: HOP-62
[15] = tested on: HCC 2998
[16] = tested on: OVCAR-3
[17] = tested on: NCI/ADR-RES
[18] = tested on: SK-MEL-5
[19] = tested on: SN12C
[20] = tested on: HL-60

Compound	GI50 [1]	GI50 [2] [µM]	GI50 [3]	GI50 [4]	GI50 [5]	GI50 [6]	GI50 [7]	GI50 [8]	GI50 [9]	GI50 [10]	GI50 [11]	GI50 [12]	GI50 [13]	GI50 [14]	GI50 [15]	GI50 [16]	GI50 [17]	GI50 [18]	GI50 [19]	GI50 [20]
CCCCCCCCC[C@@H]1C[C@@H]2CCC3C(C(=O)OC)=C(C)N=C(N1)N32 (some centres undefined)	2.96 µM (inactive)	16.5	5.25 µM (inactive)	4.22 µM (inactive)	12.3 µM (inactive)	4.79 µM (inactive)	3.43 µM (inactive)	2.64 µM (inactive)	3.85 µM (inactive)	2.25 µM (inactive)	10.5 µM (inactive)	3.37 µM (inactive)	15.3 µM (inactive)	6.17 µM (inactive)	2.86 µM (inactive)	3.21 µM (inactive)	18.7 µM (inactive)	5.32 µM (inactive)	14.6 µM (inactive)	3.47 µM (inactive)
S=C(NN=C1NCCCCN1)Nc1ccc(Cl)cc1	12.9 µM (inactive)	6.4	5.85 µM (inactive)	7.35 µM (inactive)	11.8 µM (inactive)	10.3 µM (inactive)	14.5 µM (inactive)	> 100 µM (inactive)	18.5 µM (inactive)	22.9 µM (inactive)	31.9 µM (inactive)	13.1 µM (inactive)	9.44 µM (inactive)	11 µM (inactive)	18.1 µM (inactive)	35.8 µM (inactive)	23.4 µM (inactive)	5.36 µM (inactive)		8.18 µM (inactive)
CCOS(C)(=O)=O [METHANESULFONIC ACID ETHYL ESTER]	> 100 µM (inactive)	> 100	> 100 µM (inactive)	> 100 µM (inactive)	> 100 µM (inactive)	> 100 µM (inactive)	> 100 µM (inactive)	> 100 µM (inactive)	> 100 µM (inactive)	> 100 µM (inactive)	> 100 µM (inactive)	> 100 µM (inactive)	> 100 µM (inactive)		> 100 µM (inactive)	> 100 µM (inactive)	> 100 µM (inactive)	> 100 µM (inactive)	> 100 µM (inactive)	> 100 µM (inactive)
CCC(=O)C(CCN1CCC(N2C(=O)C(CCC#N)c3ccccc32)CC1)(c1ccccc1)c1ccccc1 (centres undefined)	12.7 µM (inactive)	13.1	3.8 µM (inactive)	12.3 µM (inactive)	14 µM (inactive)	11.4 µM (inactive)	13.4 µM (inactive)	3.37 µM (inactive)	18.2 µM (inactive)	4.85 µM (inactive)		8.97 µM (inactive)	9.53 µM (inactive)	17.9 µM (inactive)	12.4 µM (inactive)	10.9 µM (inactive)	11.5 µM (inactive)	10.3 µM (inactive)	18 µM (inactive)	4.67 µM (inactive)
CCOC(=O)c1csc(NC(=O)CN2CCOCC2)n1		> 100	> 100 µM (inactive)		> 100 µM (inactive)	> 100 µM (inactive)	> 100 µM (inactive)	> 100 µM (inactive)	> 100 µM (inactive)	> 100 µM (inactive)	> 100 µM (inactive)	> 100 µM (inactive)	> 100 µM (inactive)	> 100 µM (inactive)	> 100 µM (inactive)	> 100 µM (inactive)	> 100 µM (inactive)	> 100 µM (inactive)		> 100 µM (inactive)
CNCCCNC(=S)Cn1cc(C)c(=O)[nH]c1=O	> 53.6 µM (inactive)	> 42.7	> 42.2 µM (inactive)	> 44.3 µM (inactive)	> 29.9 µM (inactive)	> 26.6 µM (inactive)	> 48.1 µM (inactive)	> 60.3 µM (inactive)	> 41.8 µM (inactive)	> 26.1 µM (inactive)	> 60.8 µM (inactive)	> 48.8 µM (inactive)	> 48 µM (inactive)	> 54.3 µM (inactive)	> 52.6 µM (inactive)	> 48.9 µM (inactive)	> 57.8 µM (inactive)	> 21.3 µM (inactive)	> 100 µM (inactive)	
Nc1c(-c2ccccc2)c2ccc([N+](=O)[O-])cc2c(=O)n1-c1cccc(C(=O)O)c1	> 100 µM (inactive)	> 100	> 100 µM (inactive)	> 10 µM (inactive)	> 100 µM (inactive)	> 100 µM (inactive)	> 100 µM (inactive)	> 100 µM (inactive)	> 100 µM (inactive)	> 100 µM (inactive)	> 100 µM (inactive)		> 100 µM (inactive)	> 100 µM (inactive)	> 100 µM (inactive)	> 100 µM (inactive)	> 100 µM (inactive)	> 100 µM (inactive)		38.3 µM (inactive)
COc1ccc(/N=C2/C(=N/c3ccc(OC)cc3)N(c3ccccc3)C(=S)N2N=C=C2Sc3ccccc3N2C)cc1	> 100 µM (inactive)	> 100	> 100 µM (inactive)	> 100 µM (inactive)	> 100 µM (inactive)	> 100 µM (inactive)	> 100 µM (inactive)	3.75 µM (inactive)	9.27 µM (inactive)	> 100 µM (inactive)	> 100 µM (inactive)	> 100 µM (inactive)	> 100 µM (inactive)	52.5 µM (inactive)	> 100 µM (inactive)	> 100 µM (inactive)	> 100 µM (inactive)	> 100 µM (inactive)	> 100 µM (inactive)	
O=C(OC1C=C=CS(=O)(=O)CC#C/C=C\1)c1cnc2ccccc2n1 (centres undefined)	25.7 µM (inactive)	48.4	61.4 µM (inactive)		> 100 µM (inactive)	> 100 µM (inactive)	> 100 µM (inactive)	> 100 µM (inactive)	83.6 µM (inactive)	> 100 µM (inactive)	97.3 µM (inactive)	63.7 µM (inactive)	76.6 µM (inactive)	> 100 µM (inactive)	> 100 µM (inactive)	> 100 µM (inactive)	> 100 µM (inactive)	91.4 µM (inactive)	> 100 µM (inactive)	76.4 µM (inactive)
O=C1NC(N2CCOCC2)=N/C1=C\c1ccc(O)cc1	16.4 µM (inactive)	> 100		> 100 µM (inactive)	> 100 µM (inactive)	> 100 µM (inactive)	> 100 µM (inactive)	> 100 µM (inactive)	> 100 µM (inactive)	> 100 µM (inactive)	> 100 µM (inactive)	> 100 µM (inactive)	> 100 µM (inactive)	> 100 µM (inactive)	> 100 µM (inactive)	> 100 µM (inactive)	> 100 µM (inactive)		> 100 µM (inactive)	> 100 µM (inactive)
CC1(C)[C@@H]2CC[C@@]1(C)CN(CCC[N+](C)(C)C)C2	> 100 µM (inactive)	> 100	> 100 µM (inactive)	> 100 µM (inactive)	> 100 µM (inactive)	> 100 µM (inactive)	> 100 µM (inactive)	> 100 µM (inactive)	> 100 µM (inactive)	> 100 µM (inactive)	> 100 µM (inactive)	> 100 µM (inactive)	> 100 µM (inactive)	> 100 µM (inactive)	> 100 µM (inactive)	> 100 µM (inactive)	> 100 µM (inactive)	> 100 µM (inactive)	> 100 µM (inactive)	
O=C(O)C1C(=O)Oc2c(cccc2[N+](=O)[O-])C1O (centres undefined)	> 100 µM (inactive)	> 100	> 100 µM (inactive)	> 100 µM (inactive)	> 100 µM (inactive)	> 100 µM (inactive)		> 100 µM (inactive)	> 100 µM (inactive)	> 100 µM (inactive)	> 100 µM (inactive)	> 100 µM (inactive)		> 100 µM (inactive)	> 100 µM (inactive)	> 100 µM (inactive)	> 100 µM (inactive)	> 100 µM (inactive)	> 100 µM (inactive)	> 100 µM (inactive)
CC(=O)NC1C(Sc2ncn(C3OC(CO)C(O)C(O)C3NC(C)=O)n2)OC(CO)C(O)C1O (centres undefined)	> 100 µM (inactive)	> 100		> 100 µM (inactive)	> 100 µM (inactive)	> 100 µM (inactive)	> 100 µM (inactive)	> 100 µM (inactive)	> 100 µM (inactive)	> 100 µM (inactive)	> 100 µM (inactive)	> 100 µM (inactive)		> 100 µM (inactive)	> 100 µM (inactive)	> 100 µM (inactive)	> 100 µM (inactive)	> 100 µM (inactive)	> 100 µM (inactive)	> 100 µM (inactive)
N#Cc1c(-c2ccc([N+](=O)[O-])cc2)cc(-c2ccc(Nc3ccnc4cc(C(F)(F)F)ccc34)cc2)nc1N	17.2 µM (inactive)	5.96	3.64 µM (inactive)	4.1 µM (inactive)	13 µM (inactive)	20.1 µM (inactive)	7.19 µM (inactive)	19.1 µM (inactive)	23.2 µM (inactive)	9.14 µM (inactive)	36.1 µM (inactive)	28.3 µM (inactive)	14.7 µM (inactive)	21.3 µM (inactive)	14.1 µM (inactive)	12.9 µM (inactive)	8.89 µM (inactive)	25.5 µM (inactive)	17.9 µM (inactive)	
CCCSc1ccc2[nH]c(N3C(=O)/C(=C/c4ccccc4)N=C3c3ccccc3)cc2c1	12.1 µM (inactive)	19.2	14.2 µM (inactive)	23.3 µM (inactive)	19.5 µM (inactive)	19.5 µM (inactive)	15.1 µM (inactive)	20 µM (inactive)	23.5 µM (inactive)	8.3 µM (inactive)	19.1 µM (inactive)	10.5 µM (inactive)	42.9 µM (inactive)		15.1 µM (inactive)		16.9 µM (inactive)	14.2 µM (inactive)	30.9 µM (inactive)	12.1 µM (inactive)
